Columns and labels:
[1] = test system: NCI-H1975 cells; test: Cell proliferation assay (SRB), NCI-H1975 cells; format: cell-based; settings: Homo sapiens, proliferation inhibition, 120 h, mean ± SD (n = 3)
From the text: (§1) Subsequently, we evaluated the in vitro anti-proliferative activity of compounds 1, 2, 4 and 7 on the proliferation of both 67R and NCI-H1975 cells, using gabapentin as positive controls (Figure 3 and Table 2). These four compounds represented the potent BCAT1 inhibitors in the above enzymatic assay.
(§2) Cell culture and chemical reagents: Human NSCLC NCI-H1975 cells were purchased from American Type Culture Collection (ATCC, Manassas, VA, USA) and cultured in RPMI 1640 medium with 10% FBS in a cell incubator (37 °C, 5% CO2). ASK120067-resistant cells (67R) were constructed, cultured, and authenticated as described previously. Gabapentin (#T0702) was purchased from TargetMol (Boston, MA, USA).
(§3) A sulforodamine B (SRB) colorimetric assay was employed to detect the inhibitory effect of compounds on cell proliferation. Cells in the logarithmic growth phase were seeded into 96-well plates and cultured overnight. After incubation with the indicated compounds for 120 h, the culture medium was discarded. Then, 100 μL of 10% pre-cooled trichloroacetic acid (TCA) was added to each well to fix the cells at 4 °C for 1 h. The wells were then washed five times with distilled water. After drying, 100 μL of SRB dye (4 mg/mL SRB dissolved in 1% glacial acetic acid) was added to each well, and the cells were stained for 15 min at room temperature. After washing with 1% glacial acetic acid for five times, the plate was dried again. To dissolve the dye, 150 μL of 10 mM Tris solution was added to each well. The optical density (OD) was measured at 560 nm using a multi-well VersaMax spectrophotometer (Molecular Devices, Sunnyvale, CA, USA). The relative inhibition rate of the compounds on cell proliferation was calculated using the following formula: Inhibition rate (%) = [1 − (A560treated/A560control)] × 100%. The IC50 values were determined from the dose–response curves using the logit method.

[2] = target: T1, BCAT1 enzyme (Homo sapiens, UniProt P54687); test: BCAT1 enzyme inhibition assay (LeuDH-coupled, NADH fluorescence); format: biochemical
T1 construct: purchased Sino Biological ME17NO0265
T1 sequence (P54687 1-386): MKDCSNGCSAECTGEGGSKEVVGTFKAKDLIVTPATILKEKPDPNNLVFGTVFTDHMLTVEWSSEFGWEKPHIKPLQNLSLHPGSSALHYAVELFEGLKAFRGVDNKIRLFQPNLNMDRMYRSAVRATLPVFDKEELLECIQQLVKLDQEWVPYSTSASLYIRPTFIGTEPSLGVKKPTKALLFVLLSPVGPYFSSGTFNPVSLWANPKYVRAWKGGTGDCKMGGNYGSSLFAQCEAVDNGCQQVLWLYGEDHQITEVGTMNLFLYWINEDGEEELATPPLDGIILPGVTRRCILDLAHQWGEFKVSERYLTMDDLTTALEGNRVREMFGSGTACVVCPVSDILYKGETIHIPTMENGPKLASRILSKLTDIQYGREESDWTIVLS
Protocol: The inhibitory activity of the synthesized compounds against BCAT1 enzyme was screened by a known method, where leucine dehydrogenase (LeuDH) was utilized to catalyze the nicotinamide adenine dinucleotide (NADH)-dependent reduction of the BCAA α-ketoisocaproate (α-KIC) to leucine and NADH consumption was measured through fluorescence and luminescence readouts to assess BCAT1 activity.
The compounds to be tested or PBS was added to a 384-well plate, followed by the addition of assay buffer (50 mM ammonium sulfate, 1 mM EDTA, 2 mM DTT, 0.01% BSA, 0.5 μM PLP, 50 mM HEPES buffer (pH 7.4)), 0.01 U LeuDH enzyme (#E0217, Nanjing Duly Biotechnology Co., Ltd., Nanjing, China) and 15 ng BCAT1 enzyme (#ME17NO0265, Sino Biological, Beijing, China). Subsequently, 40 μM α-KG, 100 μM Leucine and 10 μM NADH substrate mixture were added to initiate the reaction. Fluorescence changes in NADH were dynamically monitored using the Spark cyto (Tecan, Männedorf, Switzerland). The rate of NADH fluorescence decay was calculated to assess enzyme activity.

[3] = test system: 67R cells; test: Cell proliferation assay (SRB), ASK120067-resistant 67R cells; format: cell-based, Human; settings: 120 h, proliferation inhibition, mean ± SD (n = 3), cells with high BCAT1 expression
From the text: as §1, §2, §3

[4] = test system: BCAT1; parameters: method as in PMID 39791161; settings: Figure 1; cited from earlier work
[5] = test system: hBCAT1; parameters: method as in PMID 39791161; settings: Figure 1; cited from earlier work

With `NC[C@@]1(CC(=O)O)C[C@H]2C=C[C@@H]1C2` (relative stereo) [2•p-TsOH, 2-((1S*,2R*,4S*)-2-(Aminomethyl)bicyclo[2.2.1]hept-5-en-2-yl)acetic acid] as the compound, how does the IC50 [1] read?
The IC50 was 8.99 ± 0.67 mM.

And the IC50 [2]?
The IC50 was 2.04 ± 0.98 mM.

What about the IC50 ([3]; Homo sapiens) of the same compound?
Its IC50 is under 2 mM.

And the IC50 [3]?
The IC50 was 2.71 ± 0.33 mM.

With `NC[C@]1(CC(=O)O)C[C@H]2C=C[C@@H]1C2` (relative stereo) [3•p-TsOH, 2-((1S*,2S*,4S*)-2-(Aminomethyl)bicyclo[2.2.1]hept-5-en-2-yl)acetic acid] as the compound, how does the IC50 [2] read?
Its IC50 is 3.96 ± 2.83 mM.

For `NC[C@]1(CC(=O)O)C[C@H]2CCC[C@@H]1C2` (relative stereo) [5•HBr, 2-((1S*,5R*,6S*)-6-(Aminomethyl)bicyclo[3.2.1]octan-6-yl)acetic acid], which IC50 [2] is on record?
The IC50 was 4.2 ± 1.84 mM.

With `NC[C@@]1(CC(=O)O)C[C@H]2CC=C[C@@H]1C2` (relative stereo) [7•p-TsOH, 2-((1S*,5S*,6R*)-6-(Aminomethyl)bicyclo[3.2.1]oct-3-en-6-yl)acetic acid] as the compound, how does the IC50 [1] read?
Its IC50 is 7.26 ± 0.73 mM.

And the IC50 [2]?
Its IC50 is 0.78 ± 0.19 mM.

What about the “enhancement in BCAT1 enzymatic inhibitory activity compared to the parent compound WQQ-345” value ([2]; ratio of IC50 values versus WQQ-345) of the same compound?
Its value is 6 fold.

And the IC50 ([3]; Homo sapiens)?
The IC50 was under 2 mM.

What about the IC50 [3] of the same compound?
The IC50 was 1.64 ± 0.49 mM.

Which IC50 [2] does the source give for `NC[C@]1(CC(=O)O)C[C@H]2CCCC1CC2` (relative stereo) [8•HBr, 2-((1S*,6S*)-6-(Aminomethyl)bicyclo[3.2.2]nonan-6-yl)acetic acid] here?
The IC50 was 14.5 ± 6.39 mM.

Which IC50 [1] does the source give for `NC[C@@]1(CC(=O)O)C[C@H]2CC[C@@H]1C2` (relative stereo) [Compound 1, 2-((1R*,2R*,4S*)-2-(Aminomethyl)bicyclo[2.2.1]heptan-2-yl)acetic acid] here?
The IC50 was 7.82 ± 0.48 mM.

What about the IC50 [2] of the same compound?
The IC50 was 2.04 ± 0.59 mM.

And the IC50 ([3]; Homo sapiens)?
Its IC50 is 2.6 ± 0.93 mM.

For `NC[C@@]1(CC(=O)O)C[C@H]2CCC[C@@H]1C2` (relative stereo) [Compound 6, 2-((1S*,5R*,6R*)-6-(Aminomethyl)bicyclo[3.2.1]octan-6-yl)acetic acid], which IC50 [2] is on record?
The IC50 was 1.54 ± 0.47 mM.

Which IC50 [1] does the source give for `NCC1(CC(=O)O)CC2CCC1CC2` (stereo not drawn) [4•HBr, 2-((1R*,2S*,4R*)-2-(aminomethyl)bicyclo[2.2.2]octan-2-yl)acetic acid] here?
The IC50 was 8.08 ± 0.96 mM.

And the IC50 [2]?
Its IC50 is 1.71 ± 1 mM.

What about the IC50 ([3]; Homo sapiens) of the same compound?
Its IC50 is 1.38 ± 0.37 mM.

Which IC50 [4] does the source give for `Cc1ccccc1Oc1cc(-n2c(=O)cc(C(F)(F)F)[nH]c2=O)c2ccccc2c1Cl` [BAY-069] here?
Its IC50 is 31 nM.

For `CC(=O)C(C)CCC(=O)O` (centres unmarked) [MOHA], which IC50 [5] is on record?
Its IC50 is 1 to 10 µM.

For `NC[C@]1(CC(=O)O)C[C@H]2CC[C@@H]1C2` [WQQ-345•HBr], which IC50 [2] is on record?
The IC50 was 4.86 ± 1.98 mM.

With `NCC1(CC(=O)O)CCCCC1` [gabapentin, reference compound] as the compound, how does the IC50 [1] read?
Its IC50 is over 10 mM.

What about the IC50 [2] of the same compound?
The IC50 was 5.07 ± 1.06 mM.

What about the IC50 ([3]; Homo sapiens) of the same compound?
The IC50 was 3.53 ± 0.22 mM.

And the Ki [5]?
Its Ki is 3.5 mM.

— PMC11858294, “Design, Synthesis and Biological Activity Study of γ-Aminobutyric Acid (GABA) Derivatives Containing Bridged Bicyclic Skeletons as BCAT1 Inhibitors” (Molecules, 2025)
